Patent US12630563B2, “Macrocyclic RIP2-kinase inhibitors” (Oncodesign S.A., priority 2020, dated 2026)

These compounds were tested against T1, recombinant hRIPK2 protein (kinase domain aa 1-299-His-tagged) (Homo sapiens, UniProt O43353) (assay: RIPK2 AlphaLISA assay (displacement of bead-bound CZC-8004 from hRIPK2)). Conditions: recombinant hRIPK2 kinase domain 10 nM, 2 h at 23° C.
T1 construct: kinase domain aa 1-299-His-tagged; purchased Life Technologies PR7829A
Format: binding
Outline: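 His-tagged kinase domain (10 nM, as diluted) was mixed with compound (0.8% DMSO), acceptor beads bearing the probe CZC-8004 and Ni2+ donor beads. After 2 h at 23 °C, AlphaLISA signal was read. Loss of signal reflects displacement of the probe from RIPK2.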

T1 sequence (O43353 1-299): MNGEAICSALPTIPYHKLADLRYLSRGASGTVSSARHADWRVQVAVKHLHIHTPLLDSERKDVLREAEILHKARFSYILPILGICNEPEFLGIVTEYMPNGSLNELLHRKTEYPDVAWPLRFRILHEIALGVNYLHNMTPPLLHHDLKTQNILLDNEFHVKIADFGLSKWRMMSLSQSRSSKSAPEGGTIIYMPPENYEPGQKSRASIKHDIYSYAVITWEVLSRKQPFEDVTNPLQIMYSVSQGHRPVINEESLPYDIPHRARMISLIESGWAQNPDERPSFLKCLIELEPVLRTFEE

Row | IC50 [nM] | SMILES
1 | 10 to 100 | CO[C@@H]1C[C@H]2COc3ccn4ncc(c4n3)-c3cc(cc(F)c3F)NCCN2C1=O [Example 15, (12R,14S)-3,4-difluoro-12-methoxy-16-oxa-7,10,20,21,24-pentaazapentacyclo[15.5.2.1^2,6.0^10,^14.0^20,^23]pentacosa-1(23),2,4,6(25),17(24),18,21-heptaen-11-one]
2 | < 10 | O=C1[C@H](OCC2CC2)C[C@H]2COc3ccn4ncc(c4n3)-c3cc(F)cc(c3)NCCN12 [Example 11, (12R,14S)-12-(cyclopropylmethoxy)-4-fluoro-16-oxa-7,10,20,21,24-pentaazapentacyclo[15.5.2.1^2,6.0^10,^14.0^20,^23]pentacosa-1(23),2(25),3,5,17(24),18,21-heptaen-11-one]
3 | < 10 | CO[C@@H]1C[C@H]2COc3ccn4ncc(c4n3)-c3cc(cc(-n4nc(C)cc4C)c3)NCCN2C1=O [Example 83, (12R,14S)-4-(3,5-dimethyl-1H-pyrazol-1-yl)-12-methoxy-16-oxa-7,10,20,21,24-pentaazapentacyclo[15.5.2.1^2,6.0^1°,^14.0^2°,^23]pentacosa-1(23),2(25),3,5,17(24),18,21-heptaen-11-one]
4 | < 10 | CO[C@@H]1C[C@H]2COc3ccn4ncc(c4n3)-c3cc(C#N)cc(c3)NCCN2C1=O [Example 12, (12R,14S)-12-methoxy-11-oxo-16-oxa-7,10,20,21,24-pentaazapentacyclo[15.5.2.1^2,6.0^10,^14.0^20,23]pentacosa-1(23),2,4,6(25),17(24),18,21-heptaene-4-carbonitrile]
5 | < 10 | CCO[C@@H]1C[C@H]2COc3ccn4ncc(c4n3)-c3cc(cc(OC)c3)NCCN2C1=O [Example 6, (12R,14S)-12-ethoxy-4-methoxy-16-oxa-7,10,20,21,24-pentaazapentacyclo[15.5.2.1^2,6.0^10,^14.0^20,^23]pentacosa-1(23),2,4,6(25),17(24),18,21-heptaen-11-one]
6 | 10 to 100 | CO[C@@H]1C[C@H]2COc3ccn4ncc(c4n3)-c3cc(cc(C(=O)NOC(C)C)c3)NCCN2C1=O [Example 107, (12R,14S)-12-methoxy-11-oxo-N-(propan-2-yloxy)-16-oxa-7,10,20,21,24-pentaazapentacyclo[15.5.2.1^2,6.0^10,^14.0^20,^23]pentacosa-1(23),2,4,6(25),17(24),18,21-heptaene-4-carboxamide]
7 | < 10 | COc1cc2cc(c1)-c1cnn3ccc(nc13)OC[C@@H]1C[C@@H](OCC3CCO3)C(=O)N1CCN2 (stereo partly drawn) [Example 120, (12R,14S)-4-methoxy-12-(oxetan-2-ylmethoxy)-16-oxa-7,10,20,21,24-pentaazapentacyclo[15.5.2.1^2,6.0^1°,^14.0^2°,^23]pentacosa-1(23),2,4,6(25),17(24),18,21-heptaen-11-one]
8 | < 10 | CCO[C@@H]1C[C@H]2COc3ccn4ncc(c4n3)-c3cc(cc(C(N)=O)c3)NCCN2C1=O [Example 60, (12R,14S)-12-ethoxy-11-oxo-16-oxa-7,10,20,21,24-pentaazapentacyclo[15.5.2.1^2,6.0^10,^14.0^20,^23]pentacosa-1(23),2(25),3,5,17(24),18,21-heptaene-4-carboxamide]
9 | < 10 | CC#Cc1cc2cc(c1)-c1cnn3ccc(nc13)OC[C@@H]1C[C@@H](OC)C(=O)N1CCN2 [Example 88, (12R,14S)-12-methoxy-4-(prop-1-yn-1-yl)-16-oxa-7,10,20,21,24-pentaazapentacyclo[15.5.2.1^2,6.0^1°,^14.0^2°,^23]pentacosa-1(23),2,4,6(25),17(24),18,21-heptaen-11-one]
10 | 10 to 100 | COCC#Cc1cc2cc(c1)-c1cnn3ccc(nc13)OC[C@@H]1C[C@@H](OCCOC)C(=O)N1CCN2 [Example 100, (12R,14S)-12-(2-methoxyethoxy)-4-(3-methoxyprop-1-yn-1-yl)-16-oxa-7,10,20,21,24-pentaazapentacyclo[15.5.2.1^2,6.0^1°,^14.0^2°,^23]pentacosa-1(23),2(25),3,5,17(24),18,21-heptaen-11-one]
11 | < 10 | CO[C@@H]1C[C@H]2COc3ccn4ncc(c4n3)-c3cc(cc(OC(F)F)c3)NCCN2C1=O [Example 13, (12R,14S)-4-(difluoromethoxy)-12-methoxy-16-oxa-7,10,20,21,24-pentaazapentacyclo[15.5.2.1^2,6.0^10,^14.0^20,^23]pentacosa-1(23),2,4,6(25),17(24),18,21-heptaen-11-one]
12 | 10 to 100 | CO[C@@H]1C[C@H]2COc3ccn4ncc(c4n3)-c3cc(cc(OCc4cnn(C)c4)c3)NCCN2C1=O [Example 46, (12R,14S)-12-methoxy-4-[(1-methyl-1H-pyrazol-4-yl)methoxy]-16-oxa-7,10,20,21,24-pentaazapentacyclo[15.5.2.1^2,6.0^10,^14.0^20,^23]pentacosa-1(23),2,4,6(25),17(24),18,21-heptaen-11-one]

Further lines, the compound ahead of its results:

Row | SMILES | IC50 [nM]
13 | COCCO[C@@H]1C[C@H]2COc3nc4c(cnn4cc3OC)-c3cc(O)cc(c3)NCCN2C1=O [Example 128, (12R,14S)-4-hydroxy-18-methoxy-12-(2-methoxyethoxy)-16-oxa-7,10,20,21,24-pentaazapentacyclo[15.5.2. 1^2,6.0^10,^14.0^20,^23]pentacosa-1(23),2,4,6(25),17(24),18,21-heptaen-11-one] | < 10
14 | COCCO[C@@H]1C[C@H]2COc3nc4c(cnn4cc3OC(C)C)-c3cc(cc(OC)c3)NCCN2C1=O [Example 125, (12R,14S)-4-methoxy-12-(2-methoxyethoxy)-18-(propan-2-yloxy)-16-oxa-7,10,20,21,24-pentaazapentacyclo[15.5.2. 1^2,6.0^10,^14.0^20,^23]pentacosa-1(23),2,4,6(25),17(24),18,21-heptaen-11-one] | < 10
15 | O=C1[C@H](O)C[C@H]2COc3ccn4ncc(c4n3)-c3cc(cc(-n4cccn4)c3)NCCN12 [Example 82, (12R,14S)-12-hydroxy-4-(1H-pyrazol-1-yl)-16-oxa-7,10,20,21,24-pentaazapentacyclo[15.5.2. 1^2,6.0^10,^14.0^20,^23]pentacosa-1(23),2(25),3,5,17(24),18,21-heptaen-11-one] | < 10
16 | CCO[C@@H]1C[C@H]2COc3ccn4ncc(c4n3)-c3cc(cc(C(=O)N(C)C)c3)NCCN2C1=O [Example 58, (12R,14S)-12-ethoxy-N,N-dimethyl-11-oxo-16-oxa-7,10,20,21,24-pentaazapentacyclo[15.5.2.1^2,6.0^10,^14.0^20,^23]pentacosa-1(23),2(25),3,5,17(24),18,21-heptaene-4-carboxamide] | < 10
17 | CCO[C@@H]1C[C@H]2COc3nc4c(cnn4cc3C)-c3cc(cc(OC)c3)NCCN2C1=O [Example 39, (2^3Z,2^4E,5^2S,5^4R)-5^4-ethoxy-1^5-methoxy-2^6-methyl-3-oxa-8-aza-2(3,5)-pyrazolo[1,5-a]96yrimidine-5(2,1)-pyrrolidina-1(1,3)-benzenacyclooctaphan-5^5-one] | < 10
18 | COCCO[C@@H]1C[C@H]2COc3ccn4ncc(c4n3)-c3cc(cc(OC(F)F)c3)NCCN2C1=O (racemic) [Example 111, (12R,14S)-4-(difluoromethoxy)-12-(2-methoxyethoxy)-16-oxa-7,10,20,21,24-pentaazapentacyclo[15.5.2.1^2,6.0^10,^14.0^20,^23]pentacosa-1(23),2(25),3,5,17(24),18,21-heptaen-11-one] | < 10
19 | COCCO[C@@H]1C[C@H]2COc3ccn4ncc(c4n3)-c3cc(cc(C(=O)C4CC4)c3)NCCN2C1=O [Example 101, (12R,14S)-4-cyclopropanecarbonyl-12-(2-methoxyethoxy)-16-oxa-7,10,20,21,24-pentaazapentacyclo[15.5.2.1^2,6.0^1°,^14.0^2°,^23]pentacosa-1(23),2,4,6(25),17(24),18,21-heptaen-11-one] | 100 to 11000
20 | CO[C@@H]1C[C@H]2COc3nc4c(cnn4cc3C)-c3cc(cc(-n4cccn4)c3)NCCN2C1=O [Example 42, (12R,14S)-12-methoxy-18-methyl-4-(1H-pyrazol-1-yl)-16-oxa-7,10,20,21,24-pentaazapentacyclo[15.5.2.1^2,6.0^10,^14.0^20,^23]pentacosa-1(23),2(25),3,5,17(24),18,21-heptaen-11-one] | < 10
21 | CO[C@@H]1CC2(C)COc3ccn4ncc(c4n3)-c3cc(F)cc(c3)NCCN2C1=O (single isomer, unassigned) [Example 85] | 100 to 11000
22 | [2H]C([2H])([2H])Oc1cc2cc(c1)-c1cnn3ccc(nc13)OC[C@@H]1C[C@@H](OCCOC)C(=O)N1CCN2 (racemic) [Example 95, (12R,14S)-4-(^2H3)methoxy-12-(2-methoxyethoxy)-16-oxa-7,10,20,21,24-pentaazapentacyclo[15.5.2.1^2,6.0^10,^14.0^20,^23]pentacosa-1(23),2(25),3,5,17(24),18,21-heptaen-11-one] | < 10
23 | [2H]C([2H])([2H])Oc1cn2ncc3c2nc1OC[C@@H]1C[C@@H](OC)C(=O)N1CCNc1cc(F)cc-3c1 [Example 92, (12R,14S)-4-fluoro-18-(^2H3)methoxy-12-methoxy-16-oxa-7,10,20,21,24-pentaazapentacyclo[15.5.2.1^2,6.0^1°,^14.0^2°,^23]pentacosa-1(23),2(25),3,5,17(24),18,21-heptaen-11-one] | < 10
24 | CCO[C@@H]1C[C@H]2COc3nc4c(cnn4cc3C)-c3cc(F)cc(c3)NCCN2C1=O [Example 18, (12R,14S)-12-ethoxy-4-fluoro-18-methyl-16-oxa-7,10,20,21,24-pentaazapentacyclo[15.5.2.1^2,6.0^10,^14.0^20,^23]pentacosa-1(23),2,4,6(25),17(24),18,21-heptaen-11-one] | < 10
25 | COc1cc2cc(c1)-c1cnn3ccc(nc13)OC[C@@H]1C[C@@H](OC)C(=O)N1C(C)CN2 (stereo partly drawn) [Example 142, (12R,14S)-4,12-dimethoxy-9-methyl-16-oxa-7,10,20,21,24-pentaazapentacyclo[15.5.2.1^2,6.0^1°,^14.0^2°,^23]pentacosa-1(23),2(25),3,5,17(24),18,21-heptaen-11-one] | 10 to 100
